Test [1] addresses T1, 5-HT1A receptor (Rattus norvegicus, UniProt P19327).
T1 construct: rat hippocampal membrane homogenate; from tissue; host or cells: rat hippocampus membrane homogenate
T1 sequence (P19327 1-422): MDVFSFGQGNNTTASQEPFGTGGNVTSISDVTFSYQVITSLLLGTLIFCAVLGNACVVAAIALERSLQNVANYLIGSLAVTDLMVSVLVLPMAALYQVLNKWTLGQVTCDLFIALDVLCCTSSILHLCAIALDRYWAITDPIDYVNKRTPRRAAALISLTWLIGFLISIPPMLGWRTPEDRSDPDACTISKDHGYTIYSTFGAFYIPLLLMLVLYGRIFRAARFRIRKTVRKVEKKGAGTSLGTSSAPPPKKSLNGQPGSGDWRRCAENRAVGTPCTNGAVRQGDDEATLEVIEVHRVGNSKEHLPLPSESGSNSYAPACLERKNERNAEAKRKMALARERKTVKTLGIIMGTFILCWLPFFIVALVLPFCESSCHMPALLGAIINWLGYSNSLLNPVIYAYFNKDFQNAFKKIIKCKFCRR
The test can be described thus: 5-HT1A receptor binding activity in rat hippocampal membrane homogenate. Here is the method:
The compounds of the invention were tested for 5-HT1A receptor binding activity in rat hippocampal membrane homogenate by the method of B S Alexander and M D Wood, J Pharm Pharmacol, 1988, 40, 888-891.

In test [2] the target is T2, 5-HT1A receptor (Cavia porcellus, UniProt A0A286Y074).
T2 construct: guinea-pig ileum in vitro; from tissue; host or cells: guinea-pig ileum
T2 sequence (A0A286Y074 1-421): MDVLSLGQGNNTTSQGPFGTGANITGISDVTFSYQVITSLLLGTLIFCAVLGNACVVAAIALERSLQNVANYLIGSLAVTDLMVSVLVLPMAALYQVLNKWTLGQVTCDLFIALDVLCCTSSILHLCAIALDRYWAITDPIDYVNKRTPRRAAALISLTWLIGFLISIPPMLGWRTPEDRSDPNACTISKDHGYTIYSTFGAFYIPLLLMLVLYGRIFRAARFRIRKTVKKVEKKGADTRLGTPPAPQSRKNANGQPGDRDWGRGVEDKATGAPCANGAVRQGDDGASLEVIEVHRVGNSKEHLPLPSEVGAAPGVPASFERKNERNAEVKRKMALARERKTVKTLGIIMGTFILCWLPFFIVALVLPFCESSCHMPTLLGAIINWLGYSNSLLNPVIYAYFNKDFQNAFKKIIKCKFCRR
The test can be described thus: 5-HT1A receptor antagonism: antagonism of 5-carboxamidotryptamine in the guinea-pig ileum in vitro. Here is the method: The compounds are tested for 5-HT1A receptor antagonism activity in a test involving the antagonism of 5-carboxamidotryptamine in the guinea-pig ileum in vitro (based upon the procedure of Fozard et al, Br J Pharmac, 1985, 86, 601P).

As to `COc1ccccc1N1CCN(CCN(C(=O)NC2CCCCC2)c2ccccn2)CC1` [Example 4, N-Cyclohexyl-N-(2-(1-(4-(2-methoxyphenyl)piperazinyl))ethyl)-N-(2-pyridinyl)urea], the IC50 at 5-HT1A receptor [1] is 5.8 nM. The Kb at 5-HT1A receptor [2] (read-out: pA2, 5-HT1A receptor antagonism (converted)) was 15.8 nM.

`O=C(C1CCCCC1)N(CCN1CCN(c2cccc3c2OCCO3)CC1)c1ccccn1` [Example 17, N-(2-(1-(4-(2,3-Dihydro-1,4-benzodioxin-5-yl)piperazinyl))ethyl)-N-(2-pyridinyl)cyclohexanecarboxamide]: at 5-HT1A receptor [1], the half-maximal inhibitory concentration (IC50) came out at 3 nM. Besides, the “pA2, 5-HT1A receptor antagonism” value at 5-HT1A receptor [2] was 9.8.

Usually IC50 stands for the concentration needed to halve the response being measured. A lower IC50 goes with higher potency.

(Values after patent publication US6127357A, “N-((phenyl, benzodioxinyl or N-heteroarylpiperazinyl)alkyl)-N-(N-heteroaryl)substituted carboxamides” (John Wyeth & Brother, Ltd., priority 1991, dated 2000).)
